According to patent US11053251B2, “GPR35 modulators” (Prometheus Biosciences, Inc., priority 2019, dated 2021):

Target: Human GPR35 (Homo sapiens, UniProt Q9HC97, S294R)
Assay: Alternative Beta-Arrestin Assay (JumpIn 294R Tango U2OS cells, LiveBLAzer-FRET B/G)
Format: cell-based
Details: Human GPR35 expressing JumpIn 294R Tango U2OS cells, 5 hours treatment
Method in brief: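 Beta-arrestin recruitment measured as FRET ratio change using CCF4-AM loading for 2 h, following 5-hour compound treatment of GPR35 (S294R) JumpIn Tango U2OS cells. Zaprinast served as positive control; EC50 values from four-parameter dose-response fits.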

Human GPR35, sequence (Q9HC97 whole entry S294R): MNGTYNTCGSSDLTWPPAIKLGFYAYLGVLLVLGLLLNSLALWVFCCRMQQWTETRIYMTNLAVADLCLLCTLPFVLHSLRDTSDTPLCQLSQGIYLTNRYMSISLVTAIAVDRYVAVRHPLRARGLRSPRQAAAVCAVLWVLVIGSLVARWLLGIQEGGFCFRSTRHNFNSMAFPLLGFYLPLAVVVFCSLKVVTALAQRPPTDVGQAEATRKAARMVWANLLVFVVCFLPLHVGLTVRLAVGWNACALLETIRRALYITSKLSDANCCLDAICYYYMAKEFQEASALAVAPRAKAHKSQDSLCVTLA

| SMILES | EC50 |
| --- | --- |
| CCOC(=O)COc1cccc(-c2ccc(-c3nc4[nH]nnc4c(=O)[nH]3)c(OC3CCCC3)c2)c1 [Compound 270, ethyl 2-((3′-(cyclopentyloxy)-4′-(7-oxo-6,7-dihydro-3H-[1,2,3]triazolo[4,5-d]pyrimidin-5-yl)-[1,1′-biphenyl]-3-yl)oxy)acetate] | ≤ 10 µM |
| CC(C)OC(=O)COc1cccc(-c2ccc(-c3nc4[nH]nnc4c(=O)[nH]3)c(OC3CCCC3)c2)c1 [Compound 271, isopropyl 2-((3′-(cyclopentyloxy)-4′-(7-oxo-6,7-dihydro-3H-[1,2,3]triazolo[4,5-d]pyrimidin-5-yl)-[1,1′-biphenyl]-3-yl)oxy)acetate] | ≤ 10 µM |
| CCOc1cc(-c2ccc(C)c(OC(CC)C(=O)O)c2)ccc1-c1nc2[nH]nnc2c(=O)[nH]1 (centres unmarked) [Compound 272, 2-((3′-ethoxy-4-methyl-4′-(7-oxo-6,7-dihydro-3H-[1,2,3]triazolo[4,5-d]pyrimidin-5-yl)-[1,1′-biphenyl]-3-yl)oxy)butanoic acid] | ≤ 10 µM |
| O=c1[nH]c(-c2ccc(-c3ccc(-c4nnn[nH]4)cc3)cc2OC2CCCC2)nc2[nH]nnc12 [Compound 273, 5-(3-(cyclopentyloxy)-4′-(1H-tetrazol-5-yl)-[1,1′-biphenyl]-4-yl)-3,6-dihydro-7H-[1,2,3]triazolo[4,5-d]pyrimidin-7-one] | ≤ 10 µM |
| CCOc1cc(-c2cccc(C[C@H](N)C(=O)O)c2)ccc1-c1nc2[nH]nnc2c(=O)[nH]1 [Compound 274, (S)-2-amino-3-(3′-ethoxy-4′-(7-oxo-6,7-dihydro-3H-[1,2,3]triazolo[4,5-d]pyrimidin-5-yl)-[1,1′-biphenyl]-3-yl)propanoic acid] | ≤ 10 µM |
| CCOc1cc(-c2cc(O)cc(OC(C)C(=O)O)c2)ccc1-c1nc2[nH]nnc2c(=O)[nH]1 (centres unmarked) [Compound 276, 2-((3′-ethoxy-5-hydroxy-4′-(7-oxo-6,7-dihydro-3H-[1,2,3]triazolo[4,5-d]pyrimidin-5-yl)-[1,1′-biphenyl]-3-yl)oxy)propanoic acid] | ≤ 10 µM |
| CCOc1cc(-c2ccc(O)c(OC(C)C(=O)O)c2)ccc1-c1nc2[nH]nnc2c(=O)[nH]1 (centres unmarked) [Compound 280, 2-((3′-ethoxy-4-hydroxy-4′-(7-oxo-6,7-dihydro-3H-[1,2,3]triazolo[4,5-d]pyrimidin-5-yl)-[1,1′-biphenyl]-3-yl)oxy)propanoic acid] | ≤ 10 µM |
| CCOc1cc(-c2ccc(O)c(OCC(=O)O)c2)ccc1-c1nc2[nH]nnc2c(=O)[nH]1 [Compound 281, 2-((3′-ethoxy-4-hydroxy-4′-(7-oxo-6,7-dihydro-3H-[1,2,3]triazolo[4,5-d]pyrimidin-5-yl)-[1,1′-biphenyl]-3-yl)oxy)acetic acid] | ≤ 10 µM |
| CCOc1cc(-c2cccc(C[C@H](O)C(=O)O)c2)ccc1-c1nc2[nH]nnc2c(=O)[nH]1 [Compound 282, (S)-3-(3′-ethoxy-4′-(7-oxo-6,7-dihydro-3H-[1,2,3]triazolo[4,5-d]pyrimidin-5-yl)-[1,1′-biphenyl]-3-yl)-2-hydroxypropanoic acid] | ≤ 10 µM |
| CCOc1cc(-c2cccc(C[C@H](OC)C(=O)O)c2)ccc1-c1nc2[nH]nnc2c(=O)[nH]1 [Compound 283, (S)-3-(3′-ethoxy-4′-(7-oxo-6,7-dihydro-3H-[1,2,3]triazolo[4,5-d]pyrimidin-5-yl)-[1,1′-biphenyl]-3-yl)-2-methoxypropanoic acid] | ≤ 10 µM |
| CCOc1cc(-c2cccc(C[C@@H](O)C(=O)O)c2)ccc1-c1nc2[nH]nnc2c(=O)[nH]1 [Compound 284, (R)-3-(3′-ethoxy-4′-(7-oxo-6,7-dihydro-3H-[1,2,3]triazolo[4,5-d]pyrimidin-5-yl)-[1,1′-biphenyl]-3-yl)-2-hydroxypropanoic acid] | ≤ 10 µM |
| CCOc1cc(-c2cccc(C[C@@H](OC)C(=O)O)c2)ccc1-c1nc2[nH]nnc2c(=O)[nH]1 [Compound 285, (R)-3-(3′-ethoxy-4′-(7-oxo-6,7-dihydro-3H-[1,2,3]triazolo[4,5-d]pyrimidin-5-yl)-[1,1′-biphenyl]-3-yl)-2-methoxypropanoic acid] | ≤ 10 µM |
| CCOc1cc(-c2cccc(C[C@H](NC(C)=O)C(=O)O)c2)ccc1-c1nc2[nH]nnc2c(=O)[nH]1 [Compound 293, (S)-2-acetamido-3-(3′-ethoxy-4′-(7-oxo-6,7-dihydro-3H-[1,2,3]triazolo[4,5-d]pyrimidin-5-yl)-[1,1′-biphenyl]-3-yl)propanoic acid] | ≤ 10 µM |
| CCOC(=O)Cc1cccc(-c2ccc(-c3nc4[nH]nnc4c(=O)[nH]3)c(OCC)c2)c1 [Compound 294, ethyl 2-(3′-ethoxy-4′-(7-oxo-6,7-dihydro-3H-[1,2,3]triazolo[4,5-d]pyrimidin-5-yl)-[1,1′-biphenyl]-3-yl)acetate] | ≤ 10 µM |

More lines, now with the values ahead:

| EC50 | SMILES |
| --- | --- |
| ≤ 10 µM | CCOc1cc(-c2cccc(C[C@@H](N)C(=O)O)c2)ccc1-c1nc2[nH]nnc2c(=O)[nH]1 [Compound 275, (R)-2-amino-3-(3′-ethoxy-4′-(7-oxo-6,7-dihydro-3H-[1,2,3]triazolo[4,5-d]pyrimidin-5-yl)-[1,1′-biphenyl]-3-yl)propanoic acid] |
| ≤ 10 µM | O=C(O)c1ccc(-c2ccc(-c3nc4[nH]nnc4c(=O)[nH]3)cc2[N+](=O)[O-])cc1 [Compound 286, 2′-nitro-4′-(7-oxo-6,7-dihydro-3H-[1,2,3]triazolo[4,5-d]pyrimidin-5-yl)-[1,1′-biphenyl]-4-carboxylic acid] |
| ≤ 10 µM | Nc1cc(-c2nc3[nH]nnc3c(=O)[nH]2)ccc1-c1ccc(C(=O)O)cc1 [Compound 287, 2′-amino-4′-(7-oxo-6,7-dihydro-3H-[1,2,3]triazolo[4,5-d]pyrimidin-5-yl)-[1,1′-biphenyl]-4-carboxylic acid] |
| ≤ 10 µM | CN(C)c1cc(-c2nc3[nH]nnc3c(=O)[nH]2)ccc1-c1ccc(C(=O)O)cc1 [Compound 288, 2′-(dimethylamino)-4′-(7-oxo-6,7-dihydro-3H-[1,2,3]triazolo[4,5-d]pyrimidin-5-yl)-[1,1′-biphenyl]-4-carboxylic acid] |
| ≤ 10 µM | O=C(O)c1ccc(-c2ccc(-c3nc4[nH]nnc4c(=O)[nH]3)cc2NC2CCCCC2)cc1 [Compound 289, 2′-(cyclohexylamino)-4′-(7-oxo-6,7-dihydro-3H-[1,2,3]triazolo[4,5-d]pyrimidin-5-yl)-[1,1′-biphenyl]-4-carboxylic acid] |
| ≤ 10 µM | O=C(O)c1ccc(-c2ccc(-c3nc4[nH]nnc4c(=O)[nH]3)cc2NCc2ccccc2)cc1 [Compound 290, 2′-(benzylamino)-4′-(7-oxo-6,7-dihydro-3H-[1,2,3]triazolo[4,5-d]pyrimidin-5-yl)-[1,1′-biphenyl]-4-carboxylic acid] |
| ≤ 10 µM | CCCNc1cc(-c2nc3[nH]nnc3c(=O)[nH]2)ccc1-c1ccc(C(=O)O)cc1 [Compound 291, 4′-(7-oxo-6,7-dihydro-3H-[1,2,3]triazolo[4,5-d]pyrimidin-5-yl)-2′-(propylamino)-[1,1′-biphenyl]-4-carboxylic acid] |
| ≤ 10 µM | CCNc1cc(-c2nc3[nH]nnc3c(=O)[nH]2)ccc1-c1ccc(C(=O)O)cc1 [Compound 292, 2′-(ethylamino)-4′-(7-oxo-6,7-dihydro-3H-[1,2,3]triazolo[4,5-d]pyrimidin-5-yl)-[1,1′-biphenyl]-4-carboxylic acid] |
| ≤ 10 µM | CCOc1cc(-c2cccc(CC(=O)O)c2)ccc1-c1nc2[nH]nnc2c(=O)[nH]1 [Compound 295, 2-(3′-ethoxy-4′-(7-oxo-6,7-dihydro-3H-[1,2,3]triazolo[4,5-d]pyrimidin-5-yl)-[1,1′-biphenyl]-3-yl)acetic acid] |
